Assay results from US8952024B2, “Herbicidal pyrimidone derivatives” (E I du Pont de Nemours and Company, priority 2009, dated 2015).

Columns and labels:
Format in all cases: in vivo
wild oat (Avena fatua) = experiment: Test B pre-/postemergence plant response
Text: (§1) Seeds of plant species selected from blackgrass (Alopecurus myosuroides), downy bromegrass (Bromus tectorum), green foxtail (Setaria viridis), Italian ryegrass (Lolium multiflorum), wheat (Triticum aestivum), wild oat (Avena fatua), deadnettle (henbit deadnettle, Lamium amplexicaule), galium (catchweed bedstraw, Galium aparine), bermudagrass (Cynodon dactylon), Surinam grass (Brachiaria decumbens), cocklebur (Xanthium strumarium), corn (Zea mays), large crabgrass (Digitaria sanguinalis), woolly cupgrass (Eriochloa villosa), giant foxtail (Setaria faberii), goosegrass (Eleusine indica), johnsongrass (Sorghum halepense), kochia (Kochia scoparia), lambsquarters (Chenopodium album), morningglory (Ipomoea coccinea), nightshade (eastern black nightshade, Solanum ptycanthum), yellow nutsedge (Cyperus esculentus), pigweed (Amaranthus retroflexus), ragweed (common ragweed, Ambrosia elatior), Russian thistle (Salsola kali), soybean (Glycine max), sunflower (common oilseed sunflower, Helianthus annuus) and velvetleaf (Abutilon theophrasti) were planted into a blend of loam soil and sand and treated preemergence with test compounds formulated in a non-phytotoxic solvent mixture which included a surfactant.
(§2) At the same time, plants selected from these crop and weed species and also winter barley (Hordeum vulgare), canarygrass (Phalaris minor), chickweed (Stellaria media) and windgrass (Apera spica-venti) were planted in pots containing Redi-Earth® planting medium (Scotts Company, 14111 Scottslawn Road, Marysville, Ohio 43041) comprising spaghnum peat moss, vermiculite, wetting agent and starter nutrients and treated with postemergence applications of some of the test chemicals formulated in the same manner. Plants ranged in height from 2 to 18 cm (1- to 4-leaf stage) for postemergence treatments.
(§3) Treated plants and controls were maintained in a greenhouse for 13 to 15 days, after which time all treated plants were visually evaluated and compared to controls. Plant response ratings, summarized in Table B, are based on a scale of 0 to 100 where 0 is no effect and 100 is complete control. A dash (-) response means no test result.

[1] = system: johnsongrass (Sorghum halepense); experiment: Test B pre-/postemergence plant response
Text: as §1, §2, §3

kochia (Kochia scoparia) = experiment: Test B pre-/postemergence plant response; details: Preemergence
Text: as §1, §2, §3

[2] = system: ragweed (common ragweed, Ambrosia elatior); experiment: Test B pre-/postemergence plant response
Text: as §1, §2, §3

soybean (Glycine max) = experiment: Test B pre-/postemergence plant response
Text: as §1, §2, §3

[3] = system: velvetleaf (Abutilon theophrasti); experiment: Test B pre-/postemergence plant response
Text: as §1, §2, §3

[4] = system: pigweed (Amaranthus retroflexus); experiment: Test B pre-/postemergence plant response
Text: as §1, §2, §3

[5] = system: cocklebur (Xanthium strumarium); experiment: Test B pre-/postemergence plant response
Text: as §1, §2, §3

[6] = system: goosegrass (Eleusine indica); experiment: Test B pre-/postemergence plant response
Text: as §1, §2, §3

[7] = system: wheat (Triticum aestivum); experiment: Test B pre-/postemergence plant response
Text: as §1, §2, §3

[8] = system: canarygrass (Phalaris minor); experiment: Test B postemergence plant response; details: Postemergence
Procedure, shortened: (§4)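 Visual ratings from 0 (no effect) to 100 (complete control), made against controls 13–15 days after treatment, kept in a greenhouse. Compounds were applied postemergence to potted plants at the 1- to 4-leaf stage (2–18 cm).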

[9] = system: windgrass (Apera spica-venti); experiment: Test B postemergence plant response; details: Postemergence
Procedure, shortened: as §4

[10] = system: chickweed (Stellaria media); experiment: Test B postemergence plant response; details: Postemergence
Procedure, shortened: as §4

[11] = 250 g ai/ha, Preemergence, 0 to 100 scale
[12] = Postemergence, 31 g ai/ha, scale 0 to 100 (0 no effect, 100 complete control)
[13] = Postemergence, 62 g ai/ha, scale 0 (no effect) to 100 (complete control), 13 to 15 days
[14] = Postemergence, 125 g ai/ha, visual rating after 13 to 15 days, scale 0 (no effect) to 100 (complete control)
[15] = Postemergence, 250 g ai/ha, scale 0 to 100
[16] = Preemergence, 31 g ai/ha, scale 0 to 100 (0 no effect, 100 complete control)
[17] = Preemergence, 62 g ai/ha, scale 0 to 100 (0 no effect, 100 complete control)
[18] = Preemergence, 125 g ai/ha, 0 to 100 scale
[19] = 31 g ai/ha, scale 0 to 100 (0 no effect, 100 complete control)
[20] = 62 g ai/ha, scale 0 (no effect) to 100 (complete control), 13 to 15 days
[21] = 125 g ai/ha, visual rating after 13 to 15 days, scale 0 (no effect) to 100 (complete control)

`O=C1CCCC(O)=C1C(=O)c1cnc(-c2ccccc2)n(-c2ccccc2F)c1=O` [Compound 26] was tested, and the “Plant response rating, Oat, Wild” value (wild oat (Avena fatua); [11]) was 5, the “Plant response rating, Oat, Wild” value (wild oat (Avena fatua); [12]) was 40 and the “Plant response rating, Oat, Wild” value (wild oat (Avena fatua); [13]) was 40. For the same compound, the “Plant response rating, Oat, Wild” value (wild oat (Avena fatua); [14]) was 45, the “Oat, Wild plant response rating” value (wild oat (Avena fatua); [15]) was 60 and the “Plant response rating, Oat, Wild” value (wild oat (Avena fatua); [16]) was 0. The “Plant response rating, Oat, Wild” value (wild oat (Avena fatua); [17]) was 0, the “Oat, Wild plant response rating” value (wild oat (Avena fatua); [18]) was 0 and the “Plant response rating, Johnsongrass” value [1, 11] was 90. The “Plant response rating, Johnsongrass” value [1, 12] was 35, the “Plant response rating, Johnsongrass” value [1, 13] was 50 and the “Plant response rating, Johnsongrass” value [1, 14] was 50. The “Johnsongrass plant response rating” value [1, 15] was 70, the “Plant response rating, Johnsongrass” value [1, 16] was 0 and the “Plant response rating, Johnsongrass” value [1, 17] was 10. For the same compound, the “Johnsongrass plant response rating” value [1, 18] was 60, the “Plant response rating, Kochia” value (kochia (Kochia scoparia); 250 g ai/ha, 0 to 100 scale) was 100 and the “Plant response rating, Kochia” value (kochia (Kochia scoparia); [19]) was 80. For the same compound, the “Plant response rating, Kochia” value (kochia (Kochia scoparia); 62 g ai/ha, scale 0 to 100 (0 no effect, 100 complete control)) was 100, the “Kochia plant response rating” value (kochia (Kochia scoparia); 125 g ai/ha, 0 to 100 scale) was 100 and the “Plant response rating, Ragweed” value [2, 11] was 100. For the same compound, the “Plant response rating, Ragweed” value [2, 12] was 70, the “Plant response rating, Ragweed” value [2, 13] was 85 and the “Plant response rating, Ragweed” value [2, 14] was 98. For the same compound, the “Ragweed plant response rating” value [2, 15] was 100, the “Plant response rating, Ragweed” value [2, 16] was 65 and the “Plant response rating, Ragweed” value [2, 17] was 85. For the same compound, the “Ragweed plant response rating” value [2, 18] was 95, the “Plant response rating, Soybean” value (soybean (Glycine max); [11]) was 90 and the “Plant response rating, Soybean” value (soybean (Glycine max); [12]) was 95. For the same compound, the “Plant response rating, Soybean” value (soybean (Glycine max); [13]) was 95, the “Plant response rating, Soybean” value (soybean (Glycine max); [14]) was 95 and the “Soybean plant response rating” value (soybean (Glycine max); [15]) was 98. The “Plant response rating, Soybean” value (soybean (Glycine max); [16]) was 50, the “Plant response rating, Soybean” value (soybean (Glycine max); [17]) was 60 and the “Soybean plant response rating” value (soybean (Glycine max); [18]) was 80. The “Plant response rating, Velvetleaf” value [3, 11] was 100, the “Plant response rating, Velvetleaf” value [3, 12] was 70 and the “Plant response rating, Velvetleaf” value [3, 13] was 70. The “Plant response rating, Velvetleaf” value [3, 14] was 95, the “Velvetleaf plant response rating” value [3, 15] was 98 and the “Plant response rating, Velvetleaf” value [3, 16] was 50. The “Plant response rating, Velvetleaf” value [3, 17] was 90, the “Velvetleaf plant response rating” value [3, 18] was 100 and the “Plant response rating, Pigweed” value [4, 11] was 100. The “Plant response rating, Pigweed” value [4, 12] was 50, the “Plant response rating, Pigweed” value [4, 13] was 80 and the “Plant response rating, Pigweed” value [4, 14] was 85. For the same compound, the “Pigweed plant response rating” value [4, 15] was 98, the “Plant response rating, Pigweed” value [4, 16] was 98 and the “Plant response rating, Pigweed” value [4, 17] was 100. The “Pigweed plant response rating” value [4, 18] was 100, the “Plant response rating, Cocklebur” value [5, 11] was 98 and the “Plant response rating, Cocklebur” value [5, 12] was 80. For the same compound, the “Plant response rating, Cocklebur” value [5, 13] was 80, the “Plant response rating, Cocklebur” value [5, 14] was 95 and the “Cocklebur plant response rating” value [5, 15] was 100. The “Plant response rating, Cocklebur” value [5, 16] was 10, the “Plant response rating, Cocklebur” value [5, 17] was 40 and the “Cocklebur plant response rating” value [5, 18] was 85. The “Plant response rating, Goosegrass” value [6, 11] was 100, the “Plant response rating, Goosegrass” value [6, 12] was 60 and the “Plant response rating, Goosegrass” value [6, 13] was 90. For the same compound, the “Plant response rating, Goosegrass” value [6, 14] was 95, the “Goosegrass plant response rating” value [6, 15] was 95 and the “Plant response rating, Goosegrass” value [6, 16] was 5. For the same compound, the “Goosegrass plant response rating” value [6, 18] was 95, the “Plant response rating, Wheat” value [7, 11] was 0 and the “Plant response rating, Wheat” value [7, 12] was 0. For the same compound, the “Plant response rating, Wheat” value [7, 13] was 0, the “Plant response rating, Wheat” value [7, 14] was 5 and the “Wheat plant response rating” value [7, 15] was 30. For the same compound, the “Plant response rating, Wheat” value [7, 16] was 0, the “Plant response rating, Wheat” value [7, 17] was 0 and the “Wheat plant response rating” value [7, 18] was 0. For the same compound, the “Plant response rating, Canarygrass” value [8, 19] was 20, the “Plant response rating, Canarygrass” value [8, 20] was 30 and the “Plant response rating, Canarygrass” value [8, 21] was 50. For the same compound, the “Canarygrass plant response rating” value ([8]; 250 g ai/ha, scale 0 to 100) was 60, the “Plant response rating, Windgrass” value [9, 19] was 10 and the “Plant response rating, Windgrass” value [9, 20] was 30. For the same compound, the “Plant response rating, Windgrass” value [9, 21] was 40, the “Windgrass plant response rating” value ([9]; 250 g ai/ha, scale 0 to 100) was 60 and the “Plant response rating, Chickweed” value [10, 19] was 40. For the same compound, the “Plant response rating, Chickweed” value [10, 20] was 50, the “Plant response rating, Chickweed” value [10, 21] was 85 and the “Chickweed plant response rating” value ([10]; 250 g ai/ha, scale 0 to 100) was 85.
